Reference: paper PMC10762250, “Molecular mechanism of antihistamines recognition and regulation of the histamine H1 receptor” (Nature Communications, 2024)

Key:
hERG potassium channel = settings: cited from earlier work
H1R Y108^3.33 mutant = test system: H1R Y108^3.33 mutant; set-up: method as in PMID 25013351; settings: Y108 single mutation; cited from earlier work
H1R Y431^6.51 mutant = test system: H1R Y431^6.51 mutant; set-up: method as in PMID 25013351; settings: Y431 single mutant; cited from earlier work
guinea pig H1R F436A = settings: cited from earlier work
H1R F432^6.52 mutant = test system: H1R F432^6.52 mutant; set-up: method as in PMID 25013351; settings: F432 single mutation; cited from earlier work
H1R W428^6.48 mutant = test system: H1R W428^6.48 mutant; set-up: method as in PMID 25013351; settings: W428 single mutation; cited from earlier work
H1R F199^5.47 mutant = test system: H1R F199^5.47 mutant; set-up: method as in PMID 25013351; settings: F199 single mutation; cited from earlier work
H1R N198A = settings: cited from earlier work
H1R W158^4.56 mutant = test system: H1R W158^4.56 mutant; set-up: method as in PMID 25013351; settings: W158 single mutation; cited from earlier work
H1R-H450A [1] = target: T1, H1R-H450A (Homo sapiens, UniProt P35367, H450A); assay: cell-based
Experimental: (§1) HEK293 cells were seeded into 24-well culture plates (Corning) at a density of 0.1 million per well and incubated overnight at 37 °C with 5% CO2. […] Twenty-four hours after transfection, the culture media was removed, and transfected cells were harvested and washed with Dulbecco’s phosphate buffered saline (DPBS) buffer (Gibco) twice and then resuspended in Hank’s balanced salt solution (HBSS) buffer (Beyotime) at a density of 1.0 × 10^6 cells per milliliter. […] The accumulation of IP1 was calculated according to a standard dose–response curve in GraphPad Prism 8 (GraphPad Software). Data are represented as the mean ± SEM, n = 3 independent samples.

H1R-H450A [2] = target: T1, H1R-H450A; settings: H450A vs wild type
Experimental: as §1

[3] = test system: non-H1R targets, including the potassium channel; settings: cited from earlier work

T1 sequence (P35367 whole entry H450A): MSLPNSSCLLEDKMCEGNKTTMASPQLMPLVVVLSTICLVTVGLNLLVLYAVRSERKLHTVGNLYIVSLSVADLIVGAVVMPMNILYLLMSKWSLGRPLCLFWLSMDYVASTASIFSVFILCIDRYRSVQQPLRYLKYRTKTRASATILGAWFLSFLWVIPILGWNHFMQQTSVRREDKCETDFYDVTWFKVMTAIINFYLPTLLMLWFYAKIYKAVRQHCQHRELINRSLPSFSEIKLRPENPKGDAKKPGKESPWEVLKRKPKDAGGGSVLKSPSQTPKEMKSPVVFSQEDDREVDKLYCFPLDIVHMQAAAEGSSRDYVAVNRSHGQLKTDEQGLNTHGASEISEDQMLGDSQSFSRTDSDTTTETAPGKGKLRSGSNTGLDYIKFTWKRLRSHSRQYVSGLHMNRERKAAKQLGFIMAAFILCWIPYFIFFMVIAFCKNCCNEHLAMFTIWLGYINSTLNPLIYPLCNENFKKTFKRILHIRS

**Q.** With COc1ccc(CCN2CCC(Nc3nc4ccccc4n3Cc3ccc(F)cc3)CC2)cc1 [astemizole] as the molecule, how does the “hERG potassium channel block” value (hERG potassium channel) read?
**A.** blocks

**Q.** For COc1ccc(CN(CCN(C)C)c2ccccn2)cc1 [mepyramine], which “Effect of mutation on binding activity” value (H1R Y108^3.33 mutant) is on record?
**A.** completely disrupted

**Q.** What about the “Effect of mutation on binding activity” value (H1R Y431^6.51 mutant) of the same molecule?
**A.** completely disrupted

**Q.** And the “Decrease in affinity by mutation” value (guinea pig H1R F436A)?
**A.** 20 fold

**Q.** What about the “Effect of mutation on H1R affinity” value (H1R F432^6.52 mutant) of the same molecule?
**A.** abolished

**Q.** What about the “Effect of mutation on H1R affinity” value (H1R W428^6.48 mutant) of the same molecule?
**A.** abolished

**Q.** What about the “Effect of mutation on H1R affinity” value (H1R F199^5.47 mutant) of the same molecule?
**A.** abolished

**Q.** What about the “Effect of mutation on affinity” value (H1R N198A) of the same molecule?
**A.** did not cause obvious affinity loss

**Q.** What about the “Effect of mutation on binding activity” value (H1R W158^4.56 mutant) of the same molecule?
**A.** completely disrupted

**Q.** For CN(c1nccc(=O)[nH]1)C1CCN(c2nc3ccccc3n2Cc2ccc(F)cc2)CC1 [mizolastine], which Emax (H1R-H450A [1]) is on record?
**A.** 36.1 ± 4.94%

**Q.** What about the IC50 (H1R-H450A [1]) of the same molecule?
**A.** 5.14 ± 0.13 nM

**Q.** And the “Effect of mutation on ability/efficacy to inhibit H1R signaling” value (H1R-H450A [2])?
**A.** obviously crippled

**Q.** And the “Cross-interaction with non-H1R targets” value [3]?
**A.** does not cross-interact with any non-H1R targets
